Structures are written as SMILES.

In this experiment the target is PRMT5/MEP50 (Homo sapiens (Human), UniProt O14744). The experiment is described as follows: PRMT5 Biochemical Assay (PRMT5/MEP50 enzyme assay on peptide substrate, 3H-SAM Flashplate). Conditions: PRMT5/MEP50 biochemical assay; read-out: Biochemical IC50.
Chain of PRMT5/MEP50 (O14744 other isoform, or with tags, fused parts or gaps): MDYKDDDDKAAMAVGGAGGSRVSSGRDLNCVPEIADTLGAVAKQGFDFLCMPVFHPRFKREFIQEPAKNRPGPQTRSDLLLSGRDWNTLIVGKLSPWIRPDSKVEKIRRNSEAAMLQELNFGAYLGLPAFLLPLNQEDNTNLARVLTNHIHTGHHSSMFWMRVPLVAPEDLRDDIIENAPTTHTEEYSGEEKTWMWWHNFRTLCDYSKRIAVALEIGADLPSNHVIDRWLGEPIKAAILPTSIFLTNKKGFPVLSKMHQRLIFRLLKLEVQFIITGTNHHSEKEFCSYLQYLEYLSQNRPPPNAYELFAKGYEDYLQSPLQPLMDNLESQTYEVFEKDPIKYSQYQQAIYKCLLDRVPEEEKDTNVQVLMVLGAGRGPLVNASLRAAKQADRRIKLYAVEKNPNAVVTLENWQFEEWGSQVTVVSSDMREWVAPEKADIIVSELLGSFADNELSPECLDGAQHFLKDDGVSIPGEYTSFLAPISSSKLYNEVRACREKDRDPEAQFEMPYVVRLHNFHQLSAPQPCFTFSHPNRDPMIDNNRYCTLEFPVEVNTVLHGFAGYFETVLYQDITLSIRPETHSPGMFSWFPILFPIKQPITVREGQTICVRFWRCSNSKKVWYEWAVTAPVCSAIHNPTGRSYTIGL
Chain of PRMT5/MEP50 (Q9BQA1 other isoform, or with tags, fused parts or gaps partner): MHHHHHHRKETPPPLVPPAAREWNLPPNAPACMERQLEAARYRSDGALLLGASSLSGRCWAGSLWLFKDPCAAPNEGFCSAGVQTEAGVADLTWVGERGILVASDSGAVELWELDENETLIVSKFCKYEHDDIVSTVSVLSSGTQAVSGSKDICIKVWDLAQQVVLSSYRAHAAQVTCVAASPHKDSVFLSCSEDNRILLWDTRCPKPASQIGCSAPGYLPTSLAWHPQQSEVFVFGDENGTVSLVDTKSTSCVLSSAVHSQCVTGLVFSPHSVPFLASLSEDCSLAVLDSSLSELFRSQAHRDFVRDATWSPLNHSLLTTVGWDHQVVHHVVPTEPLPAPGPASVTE
Usually IC50 stands for the concentration that gives 50% inhibition. Turning to `Cn1nccc1C(=O)NCC(O)CN1CCc2ccccc2C1` (stereo not drawn) [Compound 150], the IC50 is 0.101 to 1 µM. For `O=C(NCC(O)CN1CCc2ccccc2C1)c1cccc(CO)c1` (stereo not drawn) [Compound 151], the 50% inhibitory concentration (IC50) is 0.101 to 1 µM. The result for `CC1CC(Nc2cccc(C(=O)NC[C@@H](O)CN3CCc4ccccc4C3)c2)CC(C)O1` (stereo partly drawn) [Compound 153] reads less than 0.1 µM. `O=C(NCC(O)CN1CCc2ccccc2C1)c1cccc(C2CCOC2)c1` (stereo not drawn) [Compound 154]: the half-inhibitory concentration (IC50) is less than 0.1 µM.

Take `COc1ccc2cc(C(=O)NCC(O)CN3CCc4ccccc4C3)ccc2n1` (stereo not drawn) [Compound 155]: the IC50 is 0.101 to 1 µM.

`CC(=O)NCCN1CCN(Cc2cccc(C(=O)NCC(O)CN3CCc4ccccc4C3)c2)CC1` (stereo not drawn) [Compound 156]: the IC50 was less than 0.1 µM. Regarding `O=C(O)CN1CCN(Cc2cccc(C(=O)NCC(O)CN3CCc4ccccc4C3)c2)CC1` (stereo not drawn) [Compound 157], the IC50 fell in the range of 0.101 to 1 µM. On to `O=C(O)CCCN1CCN(Cc2cccc(C(=O)NCC(O)CN3CCc4ccccc4C3)c2)CC1` (stereo not drawn) [Compound 158], for which the IC50 is less than 0.1 µM. With `NC(=O)CCCN1CCN(Cc2cccc(C(=O)NCC(O)CN3CCc4ccccc4C3)c2)CC1` (stereo not drawn) [Compound 159], the IC50 was less than 0.1 µM.

For the compound `COc1cc(CN2CCN(C)CC2)cc(C(=O)NCC(O)CN2CCc3ccccc3C2)c1` (stereo not drawn) [Compound 160], the concentration for half-maximal inhibition (IC50) is less than 0.1 µM. With `CC(c1cccc(C(=O)NCC(O)CN2CCc3ccccc3C2)c1)N1CCN(C)CC1` (stereo not drawn) [Compound 161], the half-inhibitory concentration (IC50) is less than 0.1 µM.

On to `CS(=O)(=O)N1CCC(Oc2cccc(C(=O)NCC(O)CN3CCc4ccccc4C3)c2)C1` (stereo not drawn) [Compound 162], for which the half-inhibitory concentration (IC50) is less than 0.1 µM. As to `CN1CCN(Cc2ccc(C(=O)NCC(O)CN3CCc4ccccc4C3)cc2)CC1` (stereo not drawn) [Compound 163], the half-maximal inhibitory concentration (IC50) was less than 0.1 µM. As for `O=C(NCC(O)CN1CCc2ccccc2C1)c1cccc(N2CCS(=O)(=O)CC2)c1` (stereo not drawn) [Compound 164], the 50% inhibitory concentration (IC50) is less than 0.1 µM.

For the compound `CCOC(=O)CN1CCN(Cc2cccc(C(=O)NCC(O)CN3CCc4ccccc4C3)c2)CC1` (stereo not drawn) [Compound 165], the 50% inhibitory concentration (IC50) is less than 0.1 µM. As for `C[C@H]1CC(Nc2cccc(C(=O)NC[C@H](O)CN3CCc4ccccc4C3)c2)CCO1` (stereo partly drawn) [Compound 167], the figure is less than 0.1 µM. Take `C[C@@H]1CC(Nc2cccc(C(=O)NC[C@H](O)CN3CCc4ccccc4C3)c2)CCO1` (stereo partly drawn) [Compound 168]: the IC50 is less than 0.1 µM. As to `O=C(NCC(O)CN1CCc2ccccc2C1)c1cc(NC2CCOCC2)n[nH]1` (stereo not drawn) [Compound 169], the half-maximal inhibitory concentration (IC50) is less than 0.1 µM. `O=C(NCC(O)CN1CCc2ccccc2C1)c1ncc[nH]1` (stereo not drawn) [Compound 170]: the half-inhibitory concentration (IC50) is 0.101 to 1 µM. Turning to `Cn1ccnc1C(=O)NCC(O)CN1CCc2ccccc2C1` (stereo not drawn) [Compound 171], the half-maximal inhibitory concentration (IC50) was less than 0.1 µM.

Turning to `NC(=O)CN1CCN(Cc2cccc(C(=O)NCC(O)CN3CCc4ccccc4C3)c2)CC1` (stereo not drawn) [Compound 172], the 50% inhibitory concentration (IC50) is less than 0.1 µM. In the case of `CNC(=O)CN1CCN(Cc2cccc(C(=O)NCC(O)CN3CCc4ccccc4C3)c2)CC1` (stereo not drawn) [Compound 173], the 50% inhibitory concentration (IC50) was less than 0.1 µM.

As for `CN(C)C(=O)CN1CCN(Cc2cccc(C(=O)NCC(O)CN3CCc4ccccc4C3)c2)CC1` (stereo not drawn) [Compound 174], the half-inhibitory concentration (IC50) was less than 0.1 µM. For the compound `CNC(=O)CCCN1CCN(Cc2cccc(C(=O)NCC(O)CN3CCc4ccccc4C3)c2)CC1` (stereo not drawn) [Compound 175], the IC50 was less than 0.1 µM. Turning to `O=C(NCC(O)CN1CCc2ccccc2C1)c1ccc(OC2CCNC2)cc1` (stereo not drawn) [Compound 176], the IC50 is less than 0.1 µM. Regarding `CN1CCC(Oc2ccc(C(=O)NCC(O)CN3CCc4ccccc4C3)cc2)C1` (stereo not drawn) [Compound 177], the 50% inhibitory concentration (IC50) is less than 0.1 µM. On to `CN(C)CCCOc1ccc(C(=O)NCC(O)CN2CCc3ccccc3C2)cc1` (stereo not drawn) [Compound 178], for which the concentration for half-maximal inhibition (IC50) is less than 0.1 µM. As for `O=C(NCC(O)CN1CCc2ccccc2C1)c1ccc(N2CCS(=O)(=O)CC2)cc1` (stereo not drawn) [Compound 179], the figure is less than 0.1 µM; as for `O=C(NC[C@H](O)CN1CCc2ccccc2C1)c1cc(NC2CCNCC2)ncn1` [Compound 180], less than 0.1 µM; as for `CN1CCC(Nc2cc(C(=O)NC[C@H](O)CN3CCc4ccccc4C3)ncn2)C1` (stereo partly drawn) [Compound 181], less than 0.1 µM.

For `O=C(NC[C@H](O)CN1CCc2ccccc2C1)c1cc(NC2CCN(CC(F)(F)F)C2)ncn1` (stereo partly drawn) [Compound 182], the IC50 is less than 0.1 µM. For the compound `O=C(NC[C@H](O)CN1CCc2ccccc2C1)c1cncc(OC2CCOCC2)c1` [Compound 183], the concentration for half-maximal inhibition (IC50) is less than 0.1 µM. Turning to `O=C(NC[C@@H](O)CN1CCc2ccccc2C1)c1ccnc(NC2CCOCC2)c1` [Compound 184], the IC50 is less than 0.1 µM. On to `O=C(NC[C@@H](O)CN1CCc2ccccc2C1)c1cc(NC2CCOCC2)ncn1` [Compound 185], for which the 50% inhibitory concentration (IC50) was less than 0.1 µM. For the compound `CN(C)CCN(C)c1cc(C(=O)NC[C@H](O)CN2CCc3ccccc3C2)ccn1` [Compound 186], the IC50 is less than 0.1 µM. For `O=C(NC[C@H](O)CN1CCc2ccccc2C1)c1ccnc(NCC2CC2)c1` [Compound 187], the concentration for half-maximal inhibition (IC50) is less than 0.1 µM. As for `O=C(NC[C@H](O)CN1CCc2ccccc2C1)c1ccnc(NCc2ccncc2)c1` [Compound 189], the figure is less than 0.1 µM. As to `O=C(NC[C@H](O)CN1CCc2ccccc2C1)c1ccnc(NCc2cccnc2)c1` [Compound 190], the IC50 is less than 0.1 µM. Take `O=C(NC[C@H](O)CN1CCc2ccccc2C1)c1ccnc(NCc2ccccn2)c1` [Compound 191]: the half-maximal inhibitory concentration (IC50) was less than 0.1 µM.

With `O=C(NC[C@H](O)CN1CCc2ccccc2C1)c1ccnc(NC2CCOCC2)c1` [Compound 192], the IC50 is less than 0.1 µM. Consider `O=C(NC[C@H](O)CN1CCc2ccccc2C1)c1cc(NC2CCOCC2)ncn1` [Compound 193], for which the IC50 was less than 0.1 µM. On to `CN(C)C(=O)CCCN1CCN(Cc2cccc(C(=O)NCC(O)CN3CCc4ccccc4C3)c2)CC1` (stereo not drawn) [Compound 194], for which the concentration for half-maximal inhibition (IC50) was less than 0.1 µM. In the case of `CN(CC(N)=O)Cc1cccc(C(=O)NCC(O)CN2CCc3ccccc3C2)c1` (stereo not drawn) [Compound 195], the 50% inhibitory concentration (IC50) was less than 0.1 µM. On to `CC(C)N1CCC(Oc2ccc(C(=O)NCC(O)CN3CCc4ccccc4C3)cc2)C1` (stereo not drawn) [Compound 196], for which the IC50 was less than 0.1 µM. For `CC(=O)N1CCC(Oc2ccc(C(=O)NCC(O)CN3CCc4ccccc4C3)cc2)C1` (stereo not drawn) [Compound 197], the IC50 is less than 0.1 µM. Regarding `CS(=O)(=O)N1CCC(Oc2ccc(C(=O)NCC(O)CN3CCc4ccccc4C3)cc2)C1` (stereo not drawn) [Compound 198], the half-inhibitory concentration (IC50) is less than 0.1 µM. Regarding `O=C(NCC(O)CN1CCc2ccccc2C1)c1ccc(OC2CCN(CC(F)(F)F)C2)cc1` (stereo not drawn) [Compound 199], the IC50 is less than 0.1 µM. As for `O=C(NC[C@H](O)CN1CCc2ccccc2C1)c1ccnc(NC2CCNCC2)c1` [Compound 200], the figure is less than 0.1 µM; as for `O=C(NC[C@H](O)CN1CCc2ccccc2C1)c1ccnc(NC2CCNC2)c1` (stereo partly drawn) [Compound 201], less than 0.1 µM; as for `CN1CCC(Oc2cc(C(=O)NC[C@H](O)CN3CCc4ccccc4C3)ccn2)CC1` [Compound 202], less than 0.1 µM. As for `O=C(NC[C@H](O)CN1CCc2ccccc2C1)c1ccnc(OC2CCN(CC(F)(F)F)CC2)c1` [Compound 203], the figure is less than 0.1 µM. `CS(=O)(=O)N1CCC(Oc2cc(C(=O)NC[C@H](O)CN3CCc4ccccc4C3)ccn2)CC1` [Compound 204]: the IC50 was less than 0.1 µM.

On to `CC(=O)N1CCC(Oc2cc(C(=O)NC[C@H](O)CN3CCc4ccccc4C3)ccn2)CC1` [Compound 205], for which the 50% inhibitory concentration (IC50) was less than 0.1 µM. The result for `O=C(NC[C@H](O)CN1CCc2ccccc2C1)c1cc(NC2CCNC2)ncn1` (stereo partly drawn) [Compound 209] reads less than 0.1 µM.
